Results: patent US20110250184A1, “METHODS FOR DETERMINING EFFICACY OF A THERAPEUTIC REGIMEN AGAINST DELETERIOUS EFFECTS OF CYTOTOXIC AGENTS IN HUMAN” (priority 2008, published 2011)
“Also recorded” adds a separate entry of the source.

Columns and labels:
human bone marrow cells [1] = assay: Cytotoxicity to human bone marrow cells (methocult, total colony forming units); format: cell-based; conditions: 2 and 24 hours treatment, up to 20 μM; sodium salt
Description: FIG. 2. ON 01210.Na is not cytotoxic to human bone marrow cells in vitro. Human bone marrow cells were treated with various concentrations of ON 01210.Na for (A) 2 hrs or (B) 24 hrs. The cells were then plated into methocult medium. Total colony forming units were determined 14 days later.
The ability of ON 01210.Na to protect primary human bone marrow cells from cytotoxic doses of radiation was studied in an in vitro assay. Initially, cytotoxicity studies were performed. Human bone marrow cells isolated from healthy volunteers were treated with increasing concentrations of ON 01210.Na for 2 and 24 hours and plated into methocult.
FIG. 2. ON 01210.Na was not cytotoxic to human bone marrow cells in vitro. Human bone marrow cells were treated with various concentrations of ON 01210.Na for (A) 2 hrs or (B) 24 hrs. The cells were then plated into methocult medium. Total colony forming units were determined 14 days later.

human bone marrow cells [2] = assay: In vitro radiation protection of human bone marrow cells (methocult CFU); format: cell-based
Description: FIG. 3. In vitro radiation protection of human bone marrow cells. Human bone marrow cells were treated with increasing concentrations of ON 01210.Na for 3 hours, and then irradiated with increasing doses of ionizing radiation. The cells were plated into methocult and the total number of CFUs was determined 14 days later.
Radiation protection assays were then performed (FIG. 3). Cells were treated with ON 01210.Na for 3 hours, irradiated, and plated in methocult. The total number of colony forming units was determined 14 days later. […] This compared very favorably when analyzed against protection studies using amifostine as a positive control.
Human bone marrow cells were treated with increasing concentrations of ON 01210.Na for 3 hours, and then irradiated with increasing doses of ionizing radiation. The cells were plated into methocult and the total number of CFUs was determined 14 days later.
When we plotted the survival curve at the optimal concentration of ON 01210.Na (FIG. 3C) we were able to calculate a dose reduction factor (DRF) of 1.6. We also tested the radiation protection activity of amifostine. Amifostine concentrations were selected that closely mimicked the therapeutic plasma concentrations. […] The calculated DRF value of 1.5 was determined from these experiments.

jejunal crypt stem cells = assay: Gastrointestinal tissue damage in irradiated mice; format: in vivo; conditions: pretreated prior to irradiation
[3] = test system: New Zealand white rabbits; assay: Survival studies in rabbits after lethal doses of radiation; format: in vivo; conditions: 120 mg/kg at 24 hours and 15 minutes before lethal doses of radiation
Description: (§1) Unlike in the mouse studies, clear evidence of improved repopulation of various hematologic cell lineages was not evident in these preliminary studies. Both solution and suspension formulations were tested.

[4] = test system: white blood cells, platelets, hematocrit and hemoglobin levels; assay: Hematology in irradiated rabbits; format: in vivo, New Zealand white rabbits
Description: as §1

human skin fibroblasts = assay: In vitro clonogenic survival assay, skin fibroblasts; format: cell-based
[5] = test system: human umbilical vein endothelial cells; assay: In vitro clonogenic survival assay, endothelial cells; format: cell-based
[6] = Free radical scavenger / antioxidant activity
cells = format: cell-based
DNA damage = assay: Comet assay, DNA damage caused by irradiation of cells; format: cell-based
[7] = test system: p53, p21, bax, c-abl and p73; assay: Protein levels in cells in response to radiation exposure; format: cell-based
Excerpt: This reduction could be instrumental in decreased cell death and increased cell recovery in ON 01210.Na pretreated irradiated cells.

human bone marrow cells [8] = assay: In vitro radiation protection of human bone marrow cells (methocult CFU); format: cell-based; conditions: 3 hour treatment, no radiation, all concentrations tested; sodium salt

O=C([O-])c1ccc(/C=C/S(=O)(=O)Cc2ccc(Cl)cc2)cc1.[Na+] [ON 01210.Na, E-4-Carboxystyryl-4-chlorobenzylsulfone sodium salt]
cytotoxicity to human bone marrow cells (total colony forming units) (human bone marrow cells [1]): non cytotoxic; also recorded: not cytotoxic; also recorded: nontoxic | range of concentrations that protected cells (human bone marrow cells [2]): 10 fold | optimal concentration for radiation protection (human bone marrow cells [2]; 3 hours treatment): 10 µM | radiation protection of human bone marrow cells (human bone marrow cells [2]; 3 hours treatment before irradiation, sodium salt): protect human bone marrow cells in a dose dependent manner; also recorded: protected human bone marrow cells in a dose responsive manner; also recorded: very effective; also recorded: reproducibly protect | dose reduction factor (DRF) (human bone marrow cells [2]; ON 01210.Na 10 μM (optimal), 3 hours before irradiation): 1.6 | damage to the jejunal crypt stem cells (jejunal crypt stem cells): significantly less damage | survival relative to vehicle-treated animals [3]: survival benefit | white blood cells, platelets, hematocrit and hemoglobin levels ([4]; 120 mg/kg at 24 hours and 15 minutes before lethal radiation): general protective trend | improved repopulation of hematologic cell lineages ([4]; preliminary studies): not evident | protection from radiation exposure (clonogenic survival) (human skin fibroblasts): protected | protection from radiation exposure (clonogenic survival) [5]: protected | activity as a free radical scavenger or antioxidant [6]: did not exhibit any significant activity | cell cycle arrest (cells): did not cause cell cycle arrest | cytotoxicity (cells): not cytotoxic | DNA damage caused by irradiation (Comet assays) (DNA damage): reduced the amount of DNA damage | protein level of bax [7]: significantly reduce | protein level of c-abl [7]: significantly reduce | protein level of p21 [7]: significantly reduce | protein level of p53 [7]: significantly reduce | protein level of p73 [7]: significantly reduce | toxicity of treatment without radiation (human bone marrow cells [8]): non-toxic at all concentrations tested; also recorded: completely safe
